Among the data in patent US20250346588A1, “IMIDAZOPYRIDINE AND OXAZOLOPYRIDINE DERIVATIVES AND ANALOGS THEREOF, METHODS OF PREPARATION THEREOF, METHODS OF HIF-1/2A PATHWAY INHIBITION, AND INDUCTION OF FERROPTOSIS” (KUDA THERAPEUTICS, INC., priority 2022, published 2025) are IC50 values, retold here.

pIC50: −log10 of the molar value.

One assay concerns HIF-2α transcriptional activity. The assay can be described thus: Hypoxia-responsive element-driven luciferase (HRE-Luc) screen. It is filed as cell-based, human. The following applies: 786-0 ccRCC cells stably expressing HRE-Luc; 24 h treatment; range of IC50 values. How it is done:
Screens for inhibitory activity of compounds described herein were performed using 786-0 ccRCC cells that stably express HRE-Luc: 5 copies of the hypoxia-responsive element (HRE) fused to the pGL3 luciferase reporter (Promega Corp, Madison WI). 786-0 cells are pVHL deficient and thus constitutively express HIF-2α independently of cellular oxygen tension. Since 786-0 cells lack HIF-1α, HRE-driven luciferase activity is primarily HIF-2α driven, and has been previously validated. Cells were maintained at log phase growth in […] (DMEM) with 10% FBS in a humidified incubator at 37° C. with 5% CO2. For screening assays, cells were seeded at a density of 4,000 cells in 50 μl of complete media/well in quadruplicate wells/point in a 96-well plate. After 24 h, 50 μl of a 2× concentration of test compound was added to each well. Compounds were diluted from a 5-10 mM stock in DMSO and final concentrations of DMSO in each well in controls and treated wells were kept constant at ≤0.6% DMSO. After 24 h treatment, luciferase activity was measured using the Steady-Glo Luciferase assay system (Promega Corp) according to the manufacturer's protocol. Cell viability was measured in quadruplicate parallel wells using resazurin as recommended by the manufacturer (R&D systems, Minneapolis, MN). Data for luciferase and resazurin were normalized to DMSO treated controls (defining 100%) and wells containing assay reagent but no cells (defining 0%) and graphed using the log inhibitor versus normalized response option in Graphpad Prism 9.3.1 software. Representative data determined using Steady-Glo luciferase and resazurin are shown in FIGS. 1A and 1B respectively, with error bars showing SD. Filled diamonds, empty squares and empty triangles indicate treatment with 3, 8 and 22 respectively with results for HRE-Luc shown in FIG. 1A.
As a reminder, the pIC50 is the IC50 on a negative log10 scale, so that one unit is a factor of ten. Read a high pIC50 as a small IC50. Compound `COc1cccc2nc(Nc3nnc(C4CCC(OC)CC4)o3)[nH]c12` (single isomer, unassigned) [Compound 75-isomer-2, N-(7-methoxy-1H-benzo[d]imidazol-2-yl)-5-(4-methoxycyclohexyl)-1,3,4-oxadiazol-2-amine] showed a pIC50 of 4.30 to 5.00.
`COc1ccc(-c2nnc(Nc3nc4c(Cl)nccc4[nH]3)o2)cc1` [Compound 23, N-(4-chloro-1H-imidazo[4,5-c]74yridine-2-yl)-5-(4-methoxyphenyl)-1,3,4-oxadiazol-2-amine] gave a pIC50 of 4.30 to 5.00.
In the case of `COc1nc(C)cc2[nH]c(Nc3nnc([C@H]4CC[C@H](OC)CC4)o3)nc12` [Compound 99, N-(4-methoxy-6-methyl-1H-imidazo[4,5-c]pyridin-2-yl)-5-((1r,4r)-4-methoxycyclohexyl)-1,3,4-oxadiazol-2-amine], the pIC50 was over 5.00.

Staying with this assay, now noted: Homo sapiens, 786-0, 24 h, 786-0 ccRCC cells stably expressing HRE-Luc; 24 h treatment; range of IC50 values.
In turn, `Cc1cncc2nc(Nc3nnc(-c4ccc(F)cc4)o3)[nH]c12` [Compound 7, 5-(4-Fluorophenyl)-N-(7-methyl-1H-imidazo[4,5-c]pyridin-2-yl)-1,3,4-oxadiazol-2-amine] gave a pIC50 of 4.30 to 5.00.
Still for that read-out and setting: as for `COc1ccc2[nH]c(Nc3nnc(-c4ccc(F)cc4)o3)nc2n1` [Compound 4, 5-(4-Fluorophenyl)-N-(5-methoxy-1H-imidazo[4,5-b]pyridin-2-yl)-1,3,4-oxadiazol-2-amine], the figure is over 5.00; as for `COc1nccc2nc(Nc3nnc(C4CCN(C)CC4)o3)[nH]c12` [Compound 64, N-(4-methoxy-3H-imidazo[4,5-c]pyridin-2-yl)-5-(1-methylpiperidin-4-yl)-1,3,4-oxadiazol-2-amine], over 5.00; as for `Fc1ccc(-c2nnc(Nc3nc4cncc(N5CCOCC5)c4[nH]3)o2)cc1` [Compound 18, 5-(4-Fluorophenyl)-N-(7-morpholino-1H-imidazo[4,5-c]pyridin-2-yl)-1,3,4-oxadiazol-2-amine], 4.30 to 5.00.
Still for that read-out and setting: the figure for `Fc1ccc(-c2nnc(Nc3nc4cnc(N5CCOCC5)cc4[nH]3)o2)cc1` [Compound 10, 5-(4-Fluorophenyl)-N-(6-morpholino-1H-imidazo[4,5-c]pyridin-2-yl)-1,3,4-oxadiazol-2-amine] is 4.30 to 5.00; for `COc1cccc2nc(Nc3nnc(N4CCOCC4)o3)[nH]c12` [Compound 72, N-(7-methoxy-1H-benzo[d]imidazol-2-yl)-5-morpholino-1,3,4-oxadiazol-2-amine] it is 4.30 to 5.00.
Still for that read-out and setting: as for `COc1cccc2[nH]c(Nc3nnc(N4CCN(C)CC4)o3)nc12` [Compound 73, N-(4-methoxy-1H-benzo[d]imidazol-2-yl)-5-(4-methylpiperazin-1-yl)-1,3,4-oxadiazol-2-amine], the figure is 4.00 to 4.30; as for `COc1ccc(-c2nnc(Nc3nc4ncccc4o3)o2)cc1` [Compound 30, N-(5-(4-Methoxyphenyl)-1,3,4-oxadiazol-2-yl)oxazolo[4,5-b]pyridin-2-amine], over 5.00.
With `COc1cccc2[nH]c(Nc3nnc(N4C[C@H](C)C[C@H](C)C4)o3)nc12` [Compound 92, 5-((3R,5S)-3,5-dimethylpiperidin-1-yl)-N-(4-methoxy-1H-benzo[d]imidazol-2-yl)-1,3,4-oxadiazol-2-amine], the pIC50 was under 4.00.
The same measure, in the same setting: as for `Fc1ccc(-c2nnc(Nc3nc4ccnc(N5CCOCC5)c4[nH]3)o2)cc1` [Compound 17, 5-(4-Fluorophenyl)-N-(4-morpholino-3H-imidazo[4,5-c]pyridin-2-yl)-1,3,4-oxadiazol-2-amine], the figure is 4.30 to 5.00.
Still for that read-out and setting: as for `Fc1ccc(-c2nnc(Nc3nc4cnc(Cl)nc4[nH]3)o2)cc1` [Compound 14, N-(2-Chloro-9H-purin-8-yl)-5-(4-fluorophenyl)-1,3,4-oxadiazol-2-amine], the figure is 4.30 to 5.00; as for `COc1nccc2[nH]c(Nc3nnc([C@H]4CC[C@@H](OC)CC4)o3)nc12` [Compound 62, N-(4-methoxy-1H-imidazo[4,5-c]pyridin-2-yl)-5-((1s,4s)-4-methoxycyclohexyl)-1,3,4-oxadiazol-2-amine], over 5.00; as for `COc1cccc2nc(Nc3nnc(C4CCC(OC)CC4)o3)[nH]c12` (single isomer, unassigned) [Compound 75-isomer-1, N-(7-methoxy-1H-benzo[d]imidazol-2-yl)-5-(4-methoxycyclohexyl)-1,3,4-oxadiazol-2-amine], over 5.00.
On the same count and under the same terms, the figure for `Fc1ccc(-c2nnc(Nc3nc4cnc(Cl)cc4[nH]3)o2)cc1` [Compound 5, N-(6-Chloro-1H-imidazo[4,5-c]pyridin-2-yl)-5-(4-fluorophenyl)-1,3,4-oxadiazol-2-amine] is 4.30 to 5.00; for `COc1nccc2[nH]c(Nc3nnc(-c4ccc(OC5CC5)cc4)o3)nc12` [Compound 41, 5-(4-Cyclopropoxyphenyl)-N-(4-methoxy-1H-imidazo[4,5-c]pyridin-2-yl)-1,3,4-oxadiazol-2-amine] it is over 5.00; for `COc1ccc(-c2nnc(Nc3nc4c(OC)cccc4[nH]3)o2)cc1OC` [Compound 84, 5-(3,4-dimethoxyphenyl)-N-(4-methoxy-1H-benzo [d]imidazol-2-yl)-1,3,4-oxadiazol-2-amine] it is over 5.00.
Turning to `COc1cccc(-c2nccc3nc(Nc4nnc(-c5ccc(F)cc5)o4)[nH]c23)c1` [Compound 19, 5-(4-Fluorophenyl)-N-(4-(3-methoxyphenyl)-3H-imidazo[4,5-c]pyridin-2-yl)-1,3,4-oxadiazol-2-amine], the pIC50 was 4.00 to 4.30.
Same read-out and setting: as for `COc1ccc(-c2nnc(Nc3nc4c(OC)nccc4[nH]3)o2)cc1F` [Compound 33, 5-(3-Fluoro-4-methoxyphenyl)-N-(4-methoxy-1H-imidazo[4,5-c]pyridin-2-yl)-1,3,4-oxadiazol-2-amine], the figure is under 5.00; as for `COc1nccc2[nH]c(Nc3nnc(-c4ccc(C#N)cc4)o3)nc12` [Compound 32, 4-(5-((4-Methoxy-1H-imidazo[4,5-c]pyridin-2-yl)amino)-1,3,4-oxadiazol-2-yl) benzonitrile], under 5.00; as for `COc1nccc2[nH]c(Nc3nnc(-c4ccc(N(C)C)cc4)o3)nc12` [Compound 28, N-(4-Methoxy-1H-imidazo[4,5-c]pyridin-2-yl)-5-(4-(dimethylamino)phenyl)-1,3,4-oxadiazol-2-amine], over 5.00.
Still for that read-out and setting: as for `COc1ccc(-c2nnc(Nc3nc4cccc(OC)c4[nH]3)o2)cc1` [Compound 82, N-(7-methoxy-1H-benzo[d]imidazol-2-yl)-5-(4-methoxyphenyl)-1,3,4-oxadiazol-2-amine], the figure is 4.30 to 5.00; as for `COc1ccc(-c2nnc(Nc3nc4c(OC)cccc4[nH]3)o2)cc1F` [Compound 85, 5-(3-fluoro-4-methoxyphenyl)-N-(4-methoxy-1H-benzo[d]imidazol-2-yl)-1,3,4-oxadiazol-2-amine], under 4.00; as for `CCOc1ccc(-c2nnc(Nc3nc4c(OC)cccc4[nH]3)o2)cc1OCC` [Compound 88, 5-(3,4-diethoxyphenyl)-N-(4-methoxy-1H-benzo[d]imidazol-2-yl)-1,3,4-oxadiazol-2-amine], under 4.00.
Same read-out and setting: as for `COc1ccc(-c2nnc(Nc3nc4c(OC)cccc4[nH]3)o2)c(C)c1` [Compound 83, N-(4-methoxy-1H-benzo[d]imidazol-2-yl)-5-(4-methoxy-2-methylphenyl)-1,3,4-oxadiazol-2-amine], the figure is under 4.00; as for `COc1cccc2[nH]c(Nc3nnc(-c4ccc5c(c4)CCO5)o3)nc12` [Compound 87, 5-(2,3-dihydrobenzofuran-5-yl)-N-(4-methoxy-1H-benzol[d]imidazol-2-yl)-1,3,4-oxadiazol-2-amine], 4.30 to 5.00.
Compound `COc1ccc(-c2csc(Nc3nc4c(OC)nc(C)cc4[nH]3)n2)cc1C#N` [Compound 53, 2-Methoxy-5-(2-((4-methoxy-6-methyl-1H-imidazo[4,5-c]pyridin-2-yl)amino)thiazol-4-yl)benzonitrile] had a pIC50 of under 4.00.
In turn, `COc1nc(C)cc2[nH]c(Nc3nnc([C@H]4CC[C@@H](OC)CC4)o3)nc12` [Compound 100, N-(4-methoxy-6-methyl-1H-imidazo[4,5-c]pyridin-2-yl)-5-((1s,4s)-4-methoxycyclohexyl)-1,3,4-oxadiazol-2-amine] had a pIC50 of over 5.00.
`COc1cccc2nc(Nc3nnc(N4CCC(OC)CC4)o3)[nH]c12` [Compound 71, N-(7-methoxy-1H-benzo[d]imidazol-2-yl)-5-(4-methoxypiperidin-1-yl)-1,3,4-oxadiazol-2-amine] had a pIC50 of over 5.00.
On the same count and under the same terms, the figure for `Fc1ccc(-c2nnc(Nc3nc4cnc(C(F)(F)F)cc4[nH]3)o2)cc1` [Compound 6, 5-(4-Fluorophenyl)-N-(6-(trifluoromethyl)-1H-imidazo[4,5-c]pyridin-2-yl)-1,3,4-oxadiazol-2-amine] is 4.30 to 5.00; for `COc1ccc(-c2nnc(Nc3nc4c(OC)nccc4[nH]3)o2)cn1` [Compound 39, N-(4-Methoxy-1H-imidazo[4,5-c]pyridin-2-yl)-5-(6-methoxypyridin-3-yl)-1,3,4-oxadiazol-2-amine] it is over 5.00.
